Where two headings read alike, the source gives them in different places. Strand notation (5' to 3'): a small letter for the sugar, then the base; units joined by * are phosphorothioate-linked, units joined directly phosphodiester-linked; [ ] holds rarer units or linkages, { } end groups; capitals alone tell only the bases. d = 2'-deoxy (DNA); r = 2'-OH (RNA)
Legend:
SKNAS cells [1] = assay: Carboplatin IC50 in siRNA-transfected cells, Cell Titer Glo 2.0 viability (Example 6); assay type: cell-based; conditions: for Data Summary: effect of knockdown on sensitivity to carboplatin: SKNAS; for IC50: SKNAS cells transfected with the labelled siRNA, carboplatin added 24 hours post transfection, 72 hour incubation
Experimental: (§1) GPC2 mRNA expression was reduced using the indicated siRNAs and changes in cell viability were assessed in multiple neuroblastoma cell lines. Cells were transfected with either a control siRNA or with GPC2 siRNA sequences 3, 5 or 7 from Table 7 using the RNAiMAX Lipofectamine kit (Invitrogen, Carlsbad, Calif.) as previously described in 96 wells for viability assays. Carboplatin was added at increasing concentrations (0 to 150 uM) to transfected cells at 24 hours post transfection. Following a 72 hour incubation period, viability measurements were made using Cell Titer Glo 2.0.

CHLA-172 cells [2] = assay: as above; assay type: cell-based; conditions: for Data Summary: effect of knockdown on sensitivity to carboplatin: CHLA-172; for IC50: CHLA-172 cells transfected with the labelled siRNA, carboplatin added 24 hours post transfection, 72 hour incubation
Experimental: as §1

CHLA-136 cells [3] = assay: as above; assay type: cell-based; conditions: for Data Summary: effect of knockdown on sensitivity to carboplatin: CHLA-136; for IC50: CHLA-136 cells transfected with the labelled siRNA, carboplatin added 24 hours post transfection, 72 hour incubation
Experimental: as §1

KELLY cells [4] = assay: as above; assay type: cell-based; conditions: for IC50: KELLY cells transfected with the labelled siRNA, carboplatin added 24 hours post transfection, 72 hour incubation
Experimental: as §1

SKNAS cells [5] = assay: Cyclophosphamide IC50 in siRNA-transfected cells, Cell Titer Glo 2.0 viability (Example 7); assay type: cell-based; conditions: for Data Summary: effect of knockdown on sensitivity to cyclophosphamide: SKNAS; for IC50: SKNAS cells transfected with the labelled siRNA, cyclophosphamide added 24 hr post transfection, 72 hour incubation
Experimental: as §1, with “reduced with” for “reduced using”, “assays. Cyclophosphamide” for “assays. Carboplatin”, “concentrations (0-20” for “concentrations (0 to 150”, “24 hr” for “24 hours”

CHLA-172 cells [6] = assay: as above; assay type: cell-based; conditions: for Data Summary: effect of knockdown on sensitivity to cyclophosphamide: CHLA-172; for IC50: CHLA-172 cells transfected with the labelled siRNA, cyclophosphamide added 24 hr post transfection, 72 hour incubation
Experimental: as §1, with “reduced with” for “reduced using”, “assays. Cyclophosphamide” for “assays. Carboplatin”, “concentrations (0-20” for “concentrations (0 to 150”, “24 hr” for “24 hours”

CHLA-136 cells [7] = assay: as above; assay type: cell-based; conditions: for Data Summary: effect of knockdown on sensitivity to cyclophosphamide: CHLA-136; for IC50: CHLA-136 cells transfected with the labelled siRNA, cyclophosphamide added 24 hr post transfection, 72 hour incubation
Experimental: as §1, with “reduced with” for “reduced using”, “assays. Cyclophosphamide” for “assays. Carboplatin”, “concentrations (0-20” for “concentrations (0 to 150”, “24 hr” for “24 hours”

KELLY cells [8] = assay: as above; assay type: cell-based; conditions: for Data Summary: effect of knockdown on sensitivity to cyclophosphamide: KELLY; for IC50: KELLY cells transfected with the labelled siRNA, cyclophosphamide added 24 hr post transfection, 72 hour incubation
Experimental: as §1, with “reduced with” for “reduced using”, “assays. Cyclophosphamide” for “assays. Carboplatin”, “concentrations (0-20” for “concentrations (0 to 150”, “24 hr” for “24 hours”

RH30 cells = assay: Cell viability after siRNA transfection, Cell Titer Glo 2.0 (Example 3); assay type: cell-based
Experimental: (§2) GPC2 mRNA knockdown and changes in cell viability were assessed in multiple cancer cell lines. Cells were transfected with either a scrambled control siRNA or with GPC2 siRNA sequence 3 or sequence 5 from Table 7 using the RNAiMAX Lipofectamine kit (Invitrogen, Carlsbad, Calif.) as previously described in Example 2, either in 96 well format (for viability assays) or 6 well format (for knockdown assessment). Following a 96 hour incubation period, cells were washed and the viability measurement was assessed using Cell Titer Glo 2.0. Total RNA was isolated from the 6 well plate samples to determine knockdown efficiency.

SKNAS cells [9] = assay: as above; assay type: cell-based
Experimental: as §2

MCF7 cells = assay: as above; assay type: cell-based
Experimental: as §2

GIST-T1 cells = assay: as above; assay type: cell-based
Experimental: as §2

CHP212 cells = assay: as above; assay type: cell-based
Experimental: as §2

TC71 cells = assay: as above; assay type: cell-based
Experimental: as §2

TC32 cells = assay: as above; assay type: cell-based
Experimental: as §2

RH41 cells = assay: as above; assay type: cell-based
Experimental: as §2

TOV112D cells = assay: as above; assay type: cell-based
Experimental: as §2

IMR32 cells = assay: as above; assay type: cell-based
Experimental: as §2

SNU16 cells = assay: as above; assay type: cell-based
Experimental: as §2

COV362 cells = assay: as above; assay type: cell-based; conditions: COV362 (Ovarian Carcinoma); 96 hour incubation
Experimental: as §2

GPC2 mRNA = GPC2 mRNA knockdown by qPCR in TC-32 Ewing's sarcoma cells transfected with siRNA (Example 2); assay type: cell-based, human; conditions: TC-32 cells; 72 hours post transfection
Experimental: siRNAs 1-5 from Table 7 were diluted to 40 nM in OptiMEM media and mixed in a 1:3 ratio (weight by volume) with RNAiMAX. This was incubated for 15 minutes at room temperature and dispensed onto cells plated in a 6 well tissue culture plate. Total RNA samples were collected at either 72 hours post transfection to compare knockdown efficiency (FIG. 2A), or at 24, 48, 72 or 96 hours post transfection to determine the extent of GPC2 mRNA knockdown over time (FIG. 2B). Expression levels of mRNA of GPC2 were measured in these samples using primers specific for GPC2 obtained commercially from Thermofisher (Carlsbad, Calif.) and standard qPCR technique.

[10] = tested on: spheroids from CHP212, SKNAS, SK-N-BE2 and CHLA90 neuroblastoma cells; assay: Viability of established spheroid cultures after siRNA transfection (Example 11); assay type: cell-based; conditions: 96 hour following transfection; where GPC2 knockdown was observed (FIG. 7B)
Experimental: The effect of siRNA mediated GPC2 mRNA knockdown was also assessed on established spheroid cultures. Spheroids were established by seeding cells in low attachment plates and culturing for 96 hours. Spheroids were transfected with either a scrambled control siRNA or with GPC2 siRNA of sequence 5 or 7 from Table 7, using the RNAiMAX Lipofectamine kit (Invitrogen, Carlsbad, Calif.) as previously described. At the 96 hour time point following transfection, the degree of GPC2 mRNA knockdown (FIG. 7A) as well as spheroid viability (FIG. 7B) was measured.

Row | Substance | Data Summary: effect of knockdown on sensitivity to carboplatin (SKNAS cells [1]) | IC50 (SKNAS cells [1]) | Data Summary: effect of knockdown on sensitivity to carboplatin (CHLA-172 cells [2]) | IC50 (CHLA-172 cells [2]) | Data Summary: effect of knockdown on sensitivity to carboplatin (CHLA-136 cells [3]) | IC50 (CHLA-136 cells [3]) | IC50 (KELLY cells [4]) | Data Summary: effect of knockdown on sensitivity to cyclophosphamide (SKNAS cells [5]) | IC50 (SKNAS cells [5]) | Data Summary: effect of knockdown on sensitivity to cyclophosphamide (CHLA-172 cells [6]) | IC50 (CHLA-172 cells [6]) | Data Summary: effect of knockdown on sensitivity to cyclophosphamide (CHLA-136 cells [7]) | IC50 (CHLA-136 cells [7]) | Data Summary: effect of knockdown on sensitivity to cyclophosphamide (KELLY cells [8]) | IC50 (KELLY cells [8]) | % Viability (COV362 cells) | Degree of GPC2 knockdown among siRNA sequences 1-5 (GPC2 mRNA) | Viability of established spheroids [10] | other results
1 | GPC2 siRNA 3: siRNA duplex: sense CCUGCUUGGACCUCGAUAA[dT][dT] (SEQ ID NO: 207), anti-sense UUAUCGAGGUCCAAGCAGG[dT][dT] (SEQ ID NO: 208) (sense CCUGCUUGGACCUCGAUAANN; antisense UUAUCGAGGUCCAAGCAGGNN; 3' dTdT overhangs, chemistry not fully specified; listed as Homo sapiens) | increases sensitivity to | 40 µM | increases sensitivity to | 100 µM | not increase sensitivity | 47 µM | 12 µM | increases sensitivity to | 1.37 µM | increases sensitivity to | 10 µM | not increase sensitivity | 11 µM | increases sensitivity to | 8 µM | 102.76% | greatest degree of GPC2 knockdown |  | % Viability (RH30 cells): 79.02%; % Viability (SKNAS cells [9]): 84.58%; % Viability (MCF7 cells): 79.67%; % Viability (GIST-T1 cells): 70.87%; % Viability (CHP212 cells): 70.18%; % Viability (TC71 cells): 102.39%; % Viability (TC32 cells): 78.24%; % Viability (RH41 cells): 131.49%; % Viability (TOV112D cells): 152.77%; % Viability (IMR32 cells): 89.05%; % Viability (SNU16 cells): 92.74%
2 | GPC2 siRNA 5: siRNA duplex: sense CUCAGUAGCCCAGCACUCU[dT][dT] (SEQ ID NO: 211), anti-sense AGAGUGCUGGGCUACUGAG[dT][dT] (SEQ ID NO: 212) (sense CUCAGUAGCCCAGCACUCUTT; antisense AGAGUGCUGGGCUACUGAGTT; sugars from the 5' end r19 d2, backbone not given here; listed as Homo sapiens) | increases sensitivity to | 15.3 µM | increases sensitivity to | 100 µM | not increase sensitivity | 36 µM | 9 µM | increases sensitivity to | 0.48 µM | increases sensitivity to | 10 µM | not increase sensitivity | 5 µM | increases sensitivity to | 1 µM | 94.27% | greatest degree of GPC2 knockdown | a decrease in spheroid viability was also seen | Data Summary: effect of knockdown on sensitivity to carboplatin (KELLY cells [4]; KELLY): KD with sequence 5 increases; % Viability (RH30 cells; RH30 (Rhabdomyosarcoma), 96 hour incubation): 46.03%; % Viability (SKNAS cells [9]; SKNAS (Neuroblastoma), 96 hour incubation): 56.14%; % Viability (MCF7 cells; MCF7 (Breast), 96 hour incubation): 67.11%; % Viability (GIST-T1 cells; GIST-T1 (Gastrointestinal Stromal), 96 hour incubation): 40.13%; % Viability (CHP212 cells; CHP212 (Neuroblastoma), 96 hour incubation): 64.46%; % Viability (TC71 cells; TC71 (Ewing's Sarcoma), 96 hour incubation): 100.92%; % Viability (TC32 cells; TC32 (Ewing's Sarcoma), 96 hour incubation): 77.18%; % Viability (RH41 cells; RH41 (Rhabdomyosarcoma), 96 hour incubation): 31.32%; % Viability (TOV112D cells; TOV112D (Ovarian Carcinoma), 96 hour incubation): 81.15%; % Viability (IMR32 cells; IMR32 (Neuroblastoma), 96 hour incubation): 63.62%; % Viability (SNU16 cells; SNU16 (Gastric), 96 hour incubation): 89.01%
3 | GPC2 siRNA 7: siRNA duplex: sense CUCCUUUCUGGUUCACACA[dT][dT] (SEQ ID NO: 215), anti-sense UGUGUGAACCAGAAAGGAG[dT][dT] (SEQ ID NO: 216) (sense rCrUrCrCrUrUrUrCrUrGrGrUrUrCrArCrArCrAdTdT; antisense rUrGrUrGrUrGrArArCrCrArGrArArArGrGrArGdTdT; listed as Homo sapiens) |  |  |  |  |  |  |  |  |  |  |  |  |  |  |  |  |  | a decrease in spheroid viability was also seen | 
